Measurements from patent US10071095B2, “1,2,4-triazolo [4,3-A] pyridine derivatives and their use for the treatment of neurological and psychiatric disorders” (JANSSEN PHARMACEUTICALS, INC., priority 2009, dated 2018).
Like-named read-outs stand apart in the source and are kept apart here. Marks after values point to notes of the source that are not given here.

Experiments:
[1] = system: PCP-induced hyperlocomotion in male NMRI mice; experiment: Phencyclidine (PCP)-induced hyperlocomotion in mice (video tracking); format: in vivo; settings: for Mice ED50 (mg/kg) PCP-Inh., estimated ED50 (footnote a) / Mice ED50 (mg/kg) PCP-Inh.: inhibition of PCP-induced hyperlocomotion; for Mice ED50 (mg/kg) PCP-Inh., estimated ED50 (footnote a): estimated ED50 values (n = 3 per dose; 4-fold separation between doses); for ED50: Mus musculus, read-out: Mice ED50 (mg/kg) PCP-Inh.; for Mice ED50 (mg/kg) PCP-Inh.: dose at which 50% of the tested animals show the effect
Method: Motor Activity (Video Tracking)
Apparatus and General Procedure
On the day of experiments, the mice were brought into the procedural room. They were housed individually and allowed to acclimate for at least a half hour prior to testing. Although the studies were conducted during the light cycle (from 8:00 to 16:00 h), the procedure room was only sparsely lit (3 to 30 LUX) to provide better contrast for the video tracking. Local lighting was used for the injection procedures. During each trial, an individual mouse was placed in an open field arena (grey PVC cylinder with a height of 40 cm and a diameter of 22.5 cm). Each arena was placed on an infrared LED (8×8 LEDs)-lit box (white PVC squared box; 40×40 cm^2; height 12.5 cm). Each mouse was placed in the center of the arena and allowed to explore freely for 30 min. After each trial, the arena was cleaned with a wet and subsequently with a dry cleaning cloth. An infrared sensitive tube camera and a white light source (in arena: 4-7 LUX) were mounted to the ceiling above the observation chamber to record and input activity to a computer. Animal behavior was recorded and analyzed using the Noldus Ethovision XT Video Tracking System (Version 3.1; Noldus, Wageningen, The Netherlands). The total distance traveled (cm) was calculated. Data were then exported to data management systems for further analysis and reporting.
Phencyclidine (PCP)-Induced Hyperlocomotion in Mice
Test compound or solvent was administered at a pre-defined time before measurement (standard: 30 min) to male NMRI mice that were challenged with phencyclidine (PCP; 5 mg/kg, s.c.) 30 min before measurement. Activity was measured for a period of 30 min.

[2] = system: conditioned avoidance response in male Wiga Wistar rats; experiment: Conditioned avoidance response (CAR) test in rats; format: in vivo; settings: for ED50: Rattus norvegicus, po, read-out: ED50 (mg/kg) CAR-Inh.
Text: Conditioned Avoidance Response (CAR) Test
The apparatus consisted of an inner box surrounded by an outer box. The inner box was composed of four walls of transparent, synthetic material (length×width×height: 30×30×30 cm), an open top, and a grid floor made of 15 pairs of iron bars (2 mm diameter; 6 mm inter-bar distance). Odd and even bars were connected with a source of alternative current (1.0 mA; Coulbourn Instruments Solid State Shocker/Distributor), which could be interrupted by a switch. The outer box was composed of the same material (length×width×height: 40×40×36 cm), also with an open top, with a distance of 5 cm between the inner and outer box on all sides. To decrease the amount of environmental stimuli, three walls of the outer box were made non-transparent. The front wall was left transparent to allow the necessary inspection of the animal during the test. The upper edge of the outer and inner box served as a target for the rats on which to jump with fore- and hind-paws, respectively.
Avoidance Conditioning and Selection of Animals
From their arrival in the laboratory on the experimental day, male Wiga Wistar rats (230±30 g) were housed in individual cages provided with bedding material.
Latency to avoidance was recorded. The median avoidance response obtained over the three experimental sessions for each rat were used for further calculations.

[3] = biological target: T1, human mGluR2 receptor (Homo sapiens, UniProt Q14416); experiment: [35S]GTPγS binding assay, positive allosteric modulation (GTPγS-PAM) in presence of EC20 glutamate; format: biochemical; settings: in presence of glutamate at EC20, average pEC50 if more experiments, ‡ means tested once; for EC50: read-out: GTPγS - hR2 PAM pEC50 (converted)
T1 construct: expressed in transfected cells; host or cells: CHO cells
Procedure, shortened: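 Membranes from butyrate-stimulated CHO cells expressing human mGluR2 (7 μg protein) preincubated 30 min at 30°C with compound plus ~EC20 glutamate in HEPES pH 7.4, 100 mM NaCl, 3 mM MgCl2, 10 μM GDP, 10 μg/ml saponin. [35S]GTPγS (0.1 nM) incorporation over 30 min at 30°C measured by filtration and scintillation counting.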

[4] = system: memantine-induced 2DG uptake in mouse brain (hippocampus); experiment: Reversal of memantine-induced brain activation ([14C]2DG uptake) in mice; format: in vivo; settings: for L.A.D. (lowest active dose for significant reduction of 2DG uptake in hippocampus vs memantine response): mice C57BL/6, s.c., memantine 20 mg/kg s.c., p<0.05
Method: Reversal of Memantine-Induced Brain Activation in Mice
NMDA receptor hypofunction is hypothesized to be involved in schizophrenia.
Autoradiographic assessment of radiolabeled [^14C]-2-deoxyglucose ([^14C]2DG) uptake is commonly used to investigate brain activation. In humans, cerebral blood flow is increased in specific brain regions after administration of a subanaesthetic dose of ketamine.
Male mice (C57BL/6, weight 24-28 g, fasted overnight; n=10 animals per group) were treated with vehicle or test compound (s.c.) in randomized order (t=0 min). Memantine (20 mg/kg, s.c.) was injected 30 min later (t=30 min). At t=45 min, [^14C]2DG (0.16 μCi/g) was administered intraperitoneally (i.p.), followed by a 45 min uptake period. Animals were decapitated (t=90 min), plasma glucose levels measured, the brain removed, rapidly frozen and stored at −20° C. until sectioned. Brain sections were exposed together to a precalibrated [^14C]standard on film, which was developed after four days of exposure. Local tissue [^14C]concentration (nCi/mg tissue equivalent—TEQ—) in each region of interest was determined.
Data was analyzed statistically using a two-way ANOVA analysis followed by post-hoc tests (memantine response versus reversal by the compound). The results are shown in table 5 below, expressed as lowest active dose (L.A.D.) required to exert a statistically significant (p<0.05) reduction of 2DG uptake in the hippocampus compared to memantine response.

[5] = not marked * (not oral; injection per method); b) = estimated ED50 values (n = 3 per dose)
[6] = compound administered orally (*); a)/b) = estimated ED50 values

T1 sequence (Q14416 19-872): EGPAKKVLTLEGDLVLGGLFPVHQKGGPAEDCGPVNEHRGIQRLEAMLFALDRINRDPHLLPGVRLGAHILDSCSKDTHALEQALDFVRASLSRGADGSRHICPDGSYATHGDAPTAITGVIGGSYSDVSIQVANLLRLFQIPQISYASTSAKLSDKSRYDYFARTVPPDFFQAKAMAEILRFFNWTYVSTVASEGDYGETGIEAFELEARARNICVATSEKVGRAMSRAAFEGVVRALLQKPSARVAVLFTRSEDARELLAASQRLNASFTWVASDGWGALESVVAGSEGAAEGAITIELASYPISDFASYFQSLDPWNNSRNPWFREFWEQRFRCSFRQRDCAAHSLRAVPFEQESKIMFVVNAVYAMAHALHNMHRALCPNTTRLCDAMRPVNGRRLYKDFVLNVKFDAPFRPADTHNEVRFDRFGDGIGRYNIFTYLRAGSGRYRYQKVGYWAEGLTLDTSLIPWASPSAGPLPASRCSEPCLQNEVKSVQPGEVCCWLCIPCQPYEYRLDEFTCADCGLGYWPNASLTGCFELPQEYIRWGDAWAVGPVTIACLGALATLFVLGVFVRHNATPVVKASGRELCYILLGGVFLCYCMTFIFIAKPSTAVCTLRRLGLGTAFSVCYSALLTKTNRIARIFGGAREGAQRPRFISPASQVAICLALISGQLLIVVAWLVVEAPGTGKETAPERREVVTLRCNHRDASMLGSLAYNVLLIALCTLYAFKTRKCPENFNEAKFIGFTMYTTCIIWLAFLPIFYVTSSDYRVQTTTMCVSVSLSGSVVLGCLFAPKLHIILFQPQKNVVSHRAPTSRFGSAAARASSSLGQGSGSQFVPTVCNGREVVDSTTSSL

| Structure (SMILES) | inhibition of PCP-induced hyperlocomotion in mice (in words) [1] | GTPγS - hR2 PAM pEC50 [3] | EC50 [3] [nM] | melting point [°C] | also measured |
| --- | --- | --- | --- | --- | --- |
| Fc1ccc(N2CCN(Cc3ccn4c(CC5CC5)nnc4c3C(F)(F)F)CC2)c(F)c1 [compound 224, 3-(Cyclopropylmethyl)-7-[[4-(2,4-difluorophenyl)-1-piperazinyl]methyl]-8-(trifluoromethyl)-1,2,4-triazolo[4,3-a]pyridine] | inhibited |  |  |  | Mice ED50 (mg/kg) PCP-Inh., estimated ED50 (footnote a) [1]: 2.0 ^a) mg/kg; inhibition of the conditioned avoidance response in rats (in words) [2]: inhibited; ED50 [2, 5]: 5 mg/kg |
| Fc1ccc(N2CCN(c3ccn4c(CC(F)(F)F)nnc4c3Cl)CC2)c(F)c1 [compound 97] | inhibited | 6.3 |  |  | Mice ED50 (mg/kg) PCP-Inh., estimated ED50 (footnote a) [1]: 6.3 ^a) mg/kg; inhibition of the conditioned avoidance response in rats (in words) [2]: inhibited; ED50 (mg/kg) CAR-Inh. [2, 6]: 32*^b) mg/kg; ED50 (mg/kg) CAR-Inh. [2, 5]: 16^b) mg/kg; L.A.D. (lowest active dose for significant reduction of 2DG uptake in hippocampus vs memantine response) [4]: ≤10 mg/kg, s.c. |
| FC(F)(F)c1c(CN2CCC(c3ccccc3)CC2)ccn2c(CC3CC3)nnc12 [compound 298, 3-(Cyclopropylmethyl)-7-[(4-phenyl-1-piperidinyl)methyl]-8-(trifluoromethyl)-1,2,4-triazolo[4,3-a]pyridine] | inhibited |  |  |  | Mice ED50 (mg/kg) PCP-Inh., estimated ED50 (footnote a) [1]: 5.0 ^a) mg/kg; inhibition of the conditioned avoidance response in rats (in words) [2]: inhibited; ED50 [2, 5]: 5 mg/kg |
| FC(F)(F)c1c(N2CCC3(CC2)COc2ccccc23)ccn2c(CC3CC3)nnc12 [compound 17, 1′-[3-cyclopropylmethyl-8-(trifluoromethyl)[1,2,4]triazolo[4,3-a]pyridin-7-yl]-spiro[1-benzofuran-3,4′-piperidine]] | inhibited |  | 35.5 | > 300 | ED50 [1]: 15.2 mg/kg |
| FC(F)(F)Cc1nnc2c(Cl)c(N3CCC(F)(c4ccccc4)CC3)ccn12 [compound 3, 8-Chloro-7-(4-fluoro-4-phenyl-1-piperidinyl)-3-(2,2,2-trifluoroethyl)-1,2,4-triazolo[4,3-a]pyridine] | inhibited | 6.94 |  |  | ED50 [1]: 15.2 mg/kg; inhibition of the conditioned avoidance response in rats (in words) [2]: inhibited; ED50 [2, 6]: 14.1 mg/kg; ED50 [2, 5]: 10.7 mg/kg; L.A.D. (lowest active dose for significant reduction of 2DG uptake in hippocampus vs memantine response) [4]: ≤2.5 mg/kg, s.c. |
| O=C(CCCN1CCC(O)(c2ccc(Cl)cc2)CC1)c1ccc(F)cc1 [haloperidol, reference compound] |  |  |  |  | effect on memantine-induced brain glucose metabolism / 2DG uptake (in words) ([4]; mouse brain, reference drugs): inactive |
| CC1(c2ccccc2)CCN(c2ccn3c(CC4CC4)nnc3c2C(F)(F)F)CC1 [compound 151] | inhibited | 7.48 |  |  | Mice ED50 (mg/kg) PCP-Inh., estimated ED50 (footnote a) [1]: 12.6 ^a) mg/kg; L.A.D. (lowest active dose for significant reduction of 2DG uptake in hippocampus vs memantine response) [4]: 10 mg/kg, s.c. |
| FC(F)(F)c1c(N2CCN(c3ccccc3)CC2)ccn2c(CC3CC3)nnc12 [compound 76] | inhibited | 6.93 |  |  | Mice ED50 (mg/kg) PCP-Inh. [1]: 3.1^ mg/kg; ED50 (mg/kg) CAR-Inh. [2, 6]: ≥40* mg/kg |
| FC(F)(F)C1(c2ccccc2)CCN(c2ccn3c(CC4CC4)nnc3c2Cl)CC1 [compound 15, 8-Chloro-3-(cyclopropylmethyl)-7-(4-trifluoromethyl-4-phenyl-piperidin-1-yl)-1,2,4-triazolo[4,3-a]pyridine] |  | 6.75 |  | 276.7 | ED50 [1]: > 10 mg/kg; ED50 [2, 6]: ≥ 40 mg/kg |
| Clc1c(N2CCC3(CC2)OCc2ccccc23)ccn2c(CC3CC3)nnc12 [compound 6, 1′-[8-Chloro-3-(cyclopropylmethyl)-1,2,4-triazolo[4,3-a]pyridin-7-yl]-spiro[isobenzofuran-1(3H),4′piperidine]] |  |  | 129 | 194.5 |  |
| C[C@@H]1CN(c2ccn3c(CC4CC4)nnc3c2C(F)(F)F)CCN1c1cc(F)cc(F)c1 [compound 182, 3-(Cyclopropylmethyl)-7-((3R)-4-3,5-difluorophenyl-3-methylpiperazin-1-yl)-(8-trifluoromethyl)-1,2,4-triazolo[4,3-a]pyridine] |  |  | 93.3 | 147.5 |  |
| CC1(C)OC2(CCN(c3ccn4c(CC5CC5)nnc4c3C(F)(F)F)CC2)c2ccccc21 [compound 112, 1′-[3-cyclopropylmethyl-8-(trifluoromethyl)[1,2,4]triazolo[4,3-a]pyridin-7-yl]-3,3-dimethyl-3H-spiro[benzo[c]furan-1,4′-piperidine]] | inhibited |  | 6.46 | 207.7 | ED50 [1]: 2 mg/kg; L.A.D. (lowest active dose for significant reduction of 2DG uptake in hippocampus vs memantine response) [4]: ≤2.5 mg/kg, s.c. |
| FC(F)(F)Cc1nnc2c(Cl)c(N3CCC4(CC3)COc3ccccc34)ccn12 [compound 98] |  | 6.75 |  |  | Mice ED50 (mg/kg) PCP-Inh. [1]: >40 mg/kg; L.A.D. (lowest active dose for significant reduction of 2DG uptake in hippocampus vs memantine response) [4]: ≤10 mg/kg, s.c. |
| Clc1c(CN2CCC(c3ccccc3)CC2)ccn2c(CC3CC3)nnc12 [compound 1, 8-Chloro-3-cyclopropylmethyl-7-[(4-phenyl-1-piperidinyl)methyl]-1,2,4-triazolo[4,3-a]pyridine] |  |  | 209 | 181.8 |  |
| Clc1c(N2CCC(c3ccccc3)CC2)ccn2c(CC3CC3)nnc12 [compound 26, 8-Chloro-3-cyclopropylmethyl-7-[4-phenyl-piperidin-1-yl]-[1,2,4]triazolo[4,3-a]pyridine] |  | 6.99 |  | 194.1 |  |
| CC(c1ccn2c(CC3CC3)nnc2c1Cl)N1CCC(c2ccccc2)CC1 (stereo not drawn) [compound 255] |  |  | 166 | 182.1 |  |
| CC(c1ccn2c(CC3CC3)nnc2c1C(F)(F)F)N1CCC(c2ccccc2)CC1 (stereo not drawn) [compound 244, 3-cyclopropylmethyl-7-[1-(4-phenyl-1-piperidinyl)ethyl]-8-trifluoromethyl-1,2,4-triazolo[4,3-a]pyridine] |  |  | 24 | 142.3 | Mice ED50 (mg/kg) PCP-Inh., estimated ED50 (footnote a) [1]: 5.0 ^a) mg/kg |
